Measured values published in patent publication US6555126B2, “Method for treating, controlling, and preventing Diabetes Mellitus” (Diabex, Inc., priority 1999, dated 2003).

Experiments:
[1] = test system: normoglycemic rats; test: Hypoglycemic effect of a single intraperitoneal injection in normoglycemic rats; type: in vivo
Description: (§1) Preparation of Animals: For each experiment, eight (8) overnight fasted normoglycemic and diabetic rats were used. The animals were kept in the experimental animal laboratory for three days with free access to food and water.
(§2) On the day of the experiment, blood samples were collected at zero time before IP injection of the test substance (Riedel De Hein—Germany), and at intervals as given in Table 1 and 2. Blood samples were drawn from the ear vein in 100 micro millimeter heparinized capillary tubes.
(§3) Blood glucose concentrations were determined according to glucose oxidase method, using glucose enzymatic kits (Biomerioux France).
(§4) The percentage change in glycaemia was calculated.
(§5) For control animals, sterile saline solution was used instead of Linalool.
(§6) Data are expressed as means and standard error of the mean (S.E.M.) statistical analysis were performed using student's t test.

[2] = test system: Streptozocin diabetic rats; test: Hypoglycemic effect of a single intraperitoneal injection in Streptozocin diabetic (hyperglycemic) rats; type: in vivo
Protocol: as §1
Hyperglycemia was induced in the diabetic group of rats by a single intraperitoneal injection of Streptozocin (Upjohn Co, Kalamazoo, Mich., USA). […] body weight-freshly dissolved in citrate phosphate buffer with pH adjusted to 4.5.
Diabetes was confirmed one week after administration of Streptozocin by determining the fasting blood glucose concentration. […] The fasting blood glucose concentration in normal rats is 90-120 mg/dl.
as §2, §3, §4, §5, §6

[3] = test system: rats (Rattus rattus); test: LD 50 determination in rats, single subcutaneous dose; type: in vivo; conditions: one single dose subcutaneously
Protocol: 1. LD 50: For this determination, 59 rats (Rattus rattus) of both sexes were used with body weights of 200-240 grams to determine the LD50. The rats were divided into groups consisting of 5-6 rats each.
The rats were fed standard laboratory pellet diet and water ad libitum. Linalool was given as one single dose subcutaneously to rats in gradually increasing doses of 0.2 ml/kg body weight, […], 0.3 ml/kg, 0.35 ml/kg, 0.40 ml/kg, 0.45 ml/kg, 0.50 ml/kg, 0.55 ml/kg, 0.60 ml/kg, 0.65 ml/kg.
LD 50 was determined to be 0.63 ml/kg body weight.

[4] = test system: diabetic volunteers (Diabetes Mellitus); test: Limited clinical study in diabetic volunteers; type: in vivo, human; parameters: key to readings (blood glucose) / Fasting Blood Sugar: blood glucose in mg/dl
Protocol: The study was conducted with strict and continuous monitoring of all vital physical parameters of all volunteers. No clinical or biochemical side effects were observed during or after the test periods. Special attention was made while monitoring Blood Urea, Serum Creatinine, SGPT, Cholesterol, and Triglycerides.
The study involved over 200 diabetic volunteers with different types of Diabetes Mellitus and from different countries, and of both sexes. The breakdown was as follows:
Group One: Two (2) volunteers were new Diabetes Mellitus patients (Virgin cases).
These volunteers had never been treated for the disease and never taken any of the known and standard Diabetes Mellitus medications.
Started using Linalool Enteric Coated Softgels 0.45 ml 3 times daily with meals, on Feb. 22nd, 1999.
Group Two: One (1) volunteer had hyper insulinemia with readings of 400 mg/dl of glucose
The study involved over two hundred diabetic volunteers of both sexes, who had the disease from 3 to 25 years. In various lots, the volunteers were on insulin alone, insulin and hypoglycemic drugs, or hypoglycemic drugs alone. The patients took the product in the form of softgel enteric coated capsules (0.5 ml Linalool and 100 mg vitamin E) one capsule with meals three times a day. The duration of treatment was minimum three months. The product was given along with the classical hypoglycemic treatment (insulin and others). These classical hypoglycemic medications, Insulin—morning and evening, and Daonil (Glibenclamide 5 mg), Glucaphage (metformin 850 mg and other medications, were decreased gradually depending on the monitored improvements of the patient condition.

[5] = Group Two volunteer, hyper insulinemia, June 24, 1999

Compound: C=CC(C)(O)CCC=C(C)C (stereo not drawn) [Linalool, 3,7 dimethyl-1,6-octadien-3-ol]
- Change in blood glucose % at 15 min. ([1]; Table 1, normoglycemic rats, 0.2 ml/kg single i.p. injection, 15 min): −36.1%
- Change in blood glucose % at 1 h. ([1]; Table 1, normoglycemic rats, 0.2 ml/kg single i.p. injection): −35.2%
- Change in blood glucose % at 1 h. ([1]; Table 2, normoglycemic rats, 0.2 ml/kg single i.p. injection, mean ± S.E.M.): −35.2 ± 6.2 %
- Change in blood glucose % at 4 h. ([1]; Table 2, normoglycemic rats, 0.2 ml/kg single i.p. injection, 4 h, mean ± S.E.M.): −40.9 ± 8.2 %
- Change in blood glucose % at 24 h. ([1]; Table 2, normoglycemic rats, 0.2 ml/kg single i.p. injection, 24 h, mean ± S.E.M.): −18.9 ± 4.4 %
- hypoglycemic activity within the first four hours after the administration ([1]; first of two values, normoglycemic rats (first hour)): 33.2%
- time of highest hypoglycemic activity after the intraperitoneal injection ([1]; normoglycemic rats): four
- decrease in blood glucose concentration within the first 15 min ([1]; normoglycemic rats treated by Linalool): 36.1%
- hypoglycemic activity (in words) ([1]; normoglycemic rats, i.p. injection): significant hypoglycemic activity
- Change in blood glucose % at 15 min. ([2]; Table 1, hyperglycemic rats, 0.2 ml/kg single i.p. injection, 15 min): −32.1%
- Change in blood glucose % at 1 h. ([2]; Table 1, hyperglycemic rats, 0.2 ml/kg single i.p. injection): −35%
- Change in blood glucose % at 1 h. ([2]; Table 2, hyperglycemic rats, 0.2 ml/kg single i.p. injection, mean ± S.E.M.): −36.4 ± 8.6 %
- Change in blood glucose % at 4 h. ([2]; Table 2, hyperglycemic rats, 0.2 ml/kg single i.p. injection, 4 h, mean ± S.E.M.): −43.7 ± 6.6 %
- Change in blood glucose % at 24 h. ([2]; Table 2, hyperglycemic rats, 0.2 ml/kg single i.p. injection, 24 h, mean ± S.E.M.): −55.8 ± 6.2 %
- time of highest hypoglycemic activity after the injection ([2]; hyperglycemic rats): 24 h
- decrease in blood glucose concentration within the first 15 min ([2]; hyperglycemic rats treated by Linalool): 32.1%
- hypoglycemic activity (in words) ([2]; hyperglycemic rats, i.p. injection): significant hypoglycemic activity
- hypoglycemic activity within the first four hours after the administration ([2]; second of two values, hyperglycemic rats (first hour)): 36.4%
- LD 50 [3]: 0.63 ml/kg body weight
- readings (blood glucose) ([4]; Group Three volunteer 4, Dec. 17): 175 mg/dL
- readings (blood glucose) ([4]; Group Three volunteer 4, Dec. 24): 163
- readings (blood glucose) ([4]; Group Three volunteer 4, Jul. 26, 1999): 105 mg/dL
- clinical outcome (physician's judgement) ([4]; Group Three volunteer 4, July 14th, taken off all medication): CURED
- HbAlc Readings (lowered to) ([4]; Group Three volunteer 4, Jun. 4, 1999): 6.18%
- readings (blood glucose) ([4]; Group Three volunteer 4, Jun. 18): 109
- readings (blood glucose) ([4]; Group Three volunteer 4, Jun. 26): 105
- HbAlc Readings, starting value (lowered from) ([4]; Group Three volunteer 4, date not stated): 9.3%
- Fasting Blood Sugar ([4]; Group Three volunteer 5, diabetic over 20 years, Jul. 27, 1998): 233 mg/dL
- HbAlc [4, 5]: 7.5%
- Insulin, Fasting [4, 5]: 25.6 uU/mL
- Serum Glucose, Fasting [4, 5]: 222 mg/dL
- Serum Glucose, Fasting ([4]; Group Two volunteer, hyper insulinemia, May 17, 1999, untreated reading 197 mg/dl): 200 mg/dL
- HbAlc ([4]; Group Two volunteer, hyper insulinemia, May 17, 1999, untreated reading 8.2%): 8.1%
- Insulin, Fasting ([4]; Group Two volunteer, hyper insulinemia, May 17, 1999, untreated reading 42 uU/mL): 18.40 uU/mL
- reduction of fasting insulin level ([4]; Group Two volunteer, from 42 uU/mL to 25.6): ~50%
- Fasting Blood Sugar ([4]; volunteer 5, Aug. 17, 1998): 190
- HbAlc ([4]; volunteer 5, Aug. 17, 1998): 10.1%
- Fasting Blood Sugar ([4]; volunteer 5, Jan. 27, 1999): 167
- HbAlc ([4]; volunteer 5, Jan. 27, 1999): 7.0%
- HbAlc ([4]; volunteer 5, Jul. 27, 1998): 11.2%
- Fasting Blood Sugar ([4]; volunteer 5, Nov. 1, 1998): 114
- Fasting Blood Sugar ([4]; volunteer 5, Nov. 12, 1998): 135
- HbAlc ([4]; volunteer 5, Nov. 12, 1998): 7.5%
- Fasting Blood Sugar ([4]; volunteer 5, Sep. 17, 1998): 166
- HbAlc ([4]; volunteer 5, Sep. 17, 1998): 9.7%

Compound: insulin: short acting soluble insulin preparation, 5 units injected IP as comparator [reference compound]
- decrease in blood glucose concentration within the first 15 min ([1]; insulin injection, called insignificant, rat group not stated): 17.1%
- decrease in blood glucose concentration after one hour ([1]; normoglycemic rats, 5 units of insulin injected IP): 49%
- decrease in blood glucose concentration after one hour ([2]; hyperglycemic rats, 5 units of insulin injected IP): 47.1%
